From US20260306453A1, “FORMULATIONS CONTAINING TRYPTAMINE DERIVATIVES AND USES THEREOF” (priority 2023, published 2026)
“And” between values parts separate entries of the source, which are not always exact repeats. Equal entries are not always repeated. Where two headings read alike, the source gives them in different places.

Key:
[1] = system: cytokine interleukin 6 (IL-6); test: IL-6 quantification in HT22 mouse hippocampal neuronal cells; type: cell-based; details: LPS stressed, HBr salt, 24 hours
Text: (§1) For neuroplasticity, brain-derived neurotrophic factor (BDNF; FIGS. 3B1 and 3B2) and for inflammation, cytokine interleukin 6 (IL-6; FIGS. 3A1 and 3A2) and TNFα (FIGS. 3C1 and 3C2), were quantified with and without proinflammatory treatment of lipopolysaccharide (LPS). LPS-induced inflammation is a model for neuroinflammation similar to what is seen in patients with neurodegenerative disorders. […] IL-6 is elevated in patients with frontotemporal dementias and other neurodegenerative disorders and especially in patients with disinhibition.

[2] = system: brain-derived neurotrophic factor (BDNF); test: BDNF quantification in HT22 mouse hippocampal neuronal cells; type: cell-based; details: HT22 control cells (no LPS); HBr salt; 24 hours
Text: as §1

TNFα = TNFα quantification in HT22 mouse hippocampal neuronal cells; type: cell-based; details: LPS stressed, HBr salt, 24 hours
Text: as §1

[3] = system: metabotropic glutamate receptor 2 (mGlu2); test: Brain tissue mGlu2 protein expression in prefrontal cortex after in vivo treatment; design: species or system mouse; details: male C57BL/6J mice, 25 mg/kg daily 18 days
Text: The expression of metabotropic glutamate receptor 2 (mGlu2) in the prefrontal cortex was quantified following in vivo mouse studies. Regulation of the metabotropic glutamate receptor 2 (mGlu2) levels in alcohol seeking rats can reduce relapse behavior.

[4] = type: in vivo; details: rat
Method: (§2) The rat PK (FIG. 6) was assessed with an oral dose of 10 mg/kg and intravenously at 1 mg/kg. […] The PK and brain concentrations were assessed in cohorts of 3 […] for each dosing group and between the plasma vs brain concentrations. For 10 mg/kg oral dosing, the PK parameters are outlined in Table 16 below.
1 mg/kg IV dosing, the PK parameters are outlined in Table 17.

[5] = type: in vivo; details: rat, IV 1 mg/kg of 2-Br-4-AcO-DMT * HBr, 4 h, individual rat
Method: as §2
The brain vs. plasma concentrations from oral and IV doses of 2-Br-4-ACO-DMT*HBr are listed in Table 18 via detection of active 2-Br-4-OH-DMT.

mice = test: Reduction in alcohol consumption; type: in vivo, mouse; details: addicted mice
Text: In order to test for the ability to curb alcohol consumption, mice were given 8-20%/alcohol ab libitum for two weeks. The results of alcohol consumption were monitored over two weeks after daily dosing of test compound in relation to positive control (4-AcO-DMT). Further studies extended the experiment to 60 days for three different doses while only dosing the mice every 3 days.

**Q.** Which results are given for `CC(=O)Oc1cccc2[nH]c(Br)c(CCN(C)C)c12` [2-Br-4-AcO-DMT, 2-bromo-3-(2-(dimethylamino)ethyl)-1H-indol-4-yl acetate]?
**A.** IL-6 level [1]: reduces IL-6; BDNF level [2]: increases neuroplasticity marker BDNF in the control cells; TNFα level (TNFα): reduces IL-6 and TNFα in the stressed LPS cells; mGluR2 expression reduction compared with psilacetin ([3]; n=5-6, relative to actin, normalized to vehicle): exceeding the effect of psilacetin; mGluR2 expression, unstressed mice ([3]; no-stress, prefrontal cortex): reduced expression of mGluR2; mGluR2 expression, stressed mice ([3]; tube restraint, prefrontal cortex): reduced expression of mGluR2

**Q.** Which results are given for `CN(C)CCc1c(Br)[nH]c2cccc(O)c12` [2-Br-4-OH-DMT, 2-bromo-3-(2-(dimethylamino)ethyl)-1H-indol-4-ol]?
**A.** AUC Extr ([4]; 1 mg/kg IV of 2-Br-4-AcO-DMT * HBr, individual rat, 1 mg/kg): 7.66% and 4.06% and 4.54%; AUC Extr ([4]; 1 mg/kg IV of 2-Br-4-AcO-DMT * HBr, mean of 3 rats): 5.42%; AUC Extr ([4]; 10 mg/kg PO of 2-Br-4-AcO-DMT * HBr, mean of 3 rats): 4.50%; Plasma Concentration [5]: BLOQ

**Q.** Which “Alcohol Consumption, effective dose range” value (mice) does the source give for `CC(=O)Oc1cccc2[nH]c(Br)c(CCN(C)C)c12` [drawing 37] here?
**A.** 5 to 40 mg/kg
